Earlier results, collected in US20220023314A1, “STABLE FORMULATIONS OF ANESTHETICS AND […] FORMS” (HALO SCIENCE LLC, priority 2018, published 2022).

Settings: in vivo

C[C@]12CC[C@@H](O)C[C@@H]1CC[C@H]1[C@@H]3CC[C@H](C(=O)CO)[C@@]3(C)CC(=O)[C@@H]12 [Alphadolone]
potency relative to alphaxalone: half as potent
